The values that follow come from patent US20110071108A1, “Beta-Cyclodextrin Derivatives as Antibacterial Agents” (Pinnacle Pharmaceuticals, Inc., priority 2005, published 2011).

A value given as a limit tells only on which side of the number the result lay.

Broadly, the MIC is the lowest concentration that inhibits growth of the organism.

One data set has as its system Staphylococcus aureus. The data set can be described thus: Bacterial panel testing, MIC by broth microdilution. It is filed as cell-based. The following applies: 20-24 hours growth. The procedure, abridged:
(§1)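 Colonies grown 2-4 h at 37° C in Mueller-Hinton or Brain Heart infusion broth (strain-dependent), adjusted to McFarland standard, then diluted into media. Test compound diluted to 10 μg/ml in DMSO (stock) and twofold serially diluted across columns 2-12 in inoculated media. Incubated 20-24 h; clear wells scored for potency.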

The next data set relates to Salmonella choleraesuis. The data set is described as above. It is filed as cell-based. Particulars: 20-24 hours growth. A digest of the protocol:
as §1

In the next data set the test system is Pseudomonas aeruginosa. Described as above. It is filed as cell-based. Particulars: 20-24 hours growth. A digest of the protocol:
as §1

The subject of a further data set is Eschericia coli. Described as above. It is filed as cell-based. The following applies: 20-24 hours growth. The procedure, abridged:
as §1

For the next data set, the system named is Enterococcus faecium. Described as above. It is filed as cell-based. The following applies: 20-24 hours growth. The procedure, abridged:
as §1

Data set [1] concerns P. aeruginosa (susceptible clinical isolate). The data set can be described thus: Potentiation of clinically used antibiotics, susceptible clinical isolate. It is filed as cell-based, Pseudomonas aeruginosa. Particulars: Table 3; antibiotic alone or mixed with PP compound. How it is done: (§2) One to three colonies of bacteria were picked from an Mueller-Hinton or Brain Heart infusion agar plate (depending on the bacterial strain) and transferred to 3 ml Mueller-Hinton broth or Brain Heart infusion media (depending on the bacterial strain). Bacteria were allowed to grow for 2-4 hours in an incubator at 37° C. Bacteria-inoculated media were dispersed in 0.9% saline to match McFarland standard density. 100 μl standardized inoculation was added to 20 ml media (dilution 1). 10 μl of the new dilution was added to 990 μl media and mixed (dilution 2). 10 μl of dilution 2 was spread on an agar plate and allowed to grow overnight. Colonies were then […].
(§3) Test compound was diluted to 10 μg/ml in dimethylsulfoxide. Four μl of Rifampicin antibiotic was loaded into row H, column 2.
All wells were then filled with 100 μl of inoculated media (dilution 1 from Example 1). A further 100 μl of the inoculated media was then added to column 2 and the contents are pipetted to thoroughly mix the contents. A full 100 μl was then transferred from column 2 and mixed into column 3. This process was continued from left to right until columns 2-12 were serially diluted, and the final draw from column 12 was discarded. The plates were covered with 3M sealing tape (plates containing Enterococcus faecium were sealed with Air Pore sealing tape) and allowed to grow for 20-24 hours. Cytotoxic wells (clear wells) are then scored and the potency of the compound was determined.
Numerous pathogenic bacteria have developed a resistance to many clinically used antibiotics. Following the protocols described herein, various compounds were mixed with clinically used antibiotics to treat Pseudomonas aeruginosa (P. aeruginosa).

Data set [2] deals with Pseudomonas aeruginosa clinical isolate, multi-drug resistant. The data set can be described thus: Potentiation of clinically used antibiotics, multi-drug resistant clinical isolate. It is filed as cell-based. Particulars: Table 4, antibiotic alone or mixed with PP compound. How it is done:
as §2, §3
All wells were then filled with 100 μl of inoculated media (dilution 1 from Example 1). A further 100 μl of the inoculated media was then added to column 2 and the contents are pipetted to thoroughly mix the contents. A full 100 μl was then transferred from column 2 and mixed into column 3. This process was continued from left to right until columns 2-12 were serially diluted, and the final draw from column 12 was discarded. […] Cytotoxic wells (clear wells) are then scored and the potency of the compound was determined. […]

Consider `O=C(NCC1OC2OC3C(CNC(=O)C4CCCN4)OC(OC4C(CNC(=O)C5CCCN5)OC(OC5C(CNC(=O)C6CCCN6)OC(OC6C(CNC(=O)C7CCCN7)OC(OC7C(CNC(=O)C8CCCN8)OC(OC8C(CNC(=O)C9CCCN9)OC(OC1C(O)C2O)C(O)C8O)C(O)C7O)C(O)C6O)C(O)C5O)C(O)C4O)C(O)C3O)C1CCCN1.O=C(O)C(F)(F)F.O=C(O)C(F)(F)F.O=C(O)C(F)(F)F.O=C(O)C(F)(F)F.O=C(O)C(F)(F)F.O=C(O)C(F)(F)F.O=C(O)C(F)(F)F` (stereo not shown), for which, in the data set on Lungs cancer cells A549, the “Mammalian Cytotoxicity IC50” value came out at 524 µg/mL. Moreover, the “MIC SA” value against Staphylococcus aureus is greater than 200 µg/mL. Besides, in the data set on Salmonella choleraesuis, the “MIC SC” value was greater than 200 µg/mL. The “MIC PA” value with Pseudomonas aeruginosa was greater than 200 µg/mL. For the same compound, in the data set with Eschericia coli, the “MIC EC” value is greater than 200 µg/mL. Moreover, in the data set on Enterococcus faecium, the “MIC EF” value was greater than 200 µg/mL.

As for `Cl.Cl.Cl.Cl.Cl.Cl.Cl.Cl.Cl.Cl.Cl.Cl.Cl.Cl.NCCCC[C@@H](N)C(=O)NC[C@H]1O[C@@H]2O[C@H]3[C@H](O)[C@@H](O)[C@@H](O[C@H]4[C@H](O)[C@@H](O)[C@@H](O[C@H]5[C@H](O)[C@@H](O)[C@@H](O[C@H]6[C@H](O)[C@@H](O)[C@@H](O[C@H]7[C@H](O)[C@@H](O)[C@@H](O[C@H]8[C@H](O)[C@@H](O)[C@@H](O[C@H]1[C@H](O)[C@H]2O)O[C@@H]8CNC(=O)[C@H](N)CCCCN)O[C@@H]7CNC(=O)[C@H](N)CCCCN)O[C@@H]6CNC(=O)[C@H](N)CCCCN)O[C@@H]5CNC(=O)[C@H](N)CCCCN)O[C@@H]4CNC(=O)[C@H](N)CCCCN)O[C@@H]3CNC(=O)[C@H](N)CCCCN`, in the data set with Lungs cancer cells A549, the “Mammalian Cytotoxicity IC50” value stood at 2990 µg/mL. In addition, the “MIC SA” value with Staphylococcus aureus was greater than 200 µg/mL. For the same compound, the “MIC SC” value in the data set on Salmonella choleraesuis is greater than 200 µg/mL. In addition, the “MIC PA” value in the data set with Pseudomonas aeruginosa is greater than 200 µg/mL. In addition, in the data set on Eschericia coli, the “MIC EC” value is greater than 200 µg/mL. In the data set with Enterococcus faecium, the “MIC EF” value was greater than 200 µg/mL.

With `I.I.I.I.I.I.I.N=C(N)SCC1OC2OC3C(CSC(=N)N)OC(OC4C(CSC(=N)N)OC(OC5C(CSC(=N)N)OC(OC6C(CSC(=N)N)OC(OC7C(CSC(=N)N)OC(OC8C(CSC(=N)N)OC(OC1C(O)C2O)C(O)C8O)C(O)C7O)C(O)C6O)C(O)C5O)C(O)C4O)C(O)C3O` (stereo not shown), the “Mammalian Cytotoxicity IC50” value in the data set with Lungs cancer cells A549 came to 480 µg/mL. The “MIC SA” value against Staphylococcus aureus was greater than 200 µg/mL. Besides, the “MIC SC” value in the data set on Salmonella choleraesuis was greater than 200 µg/mL. Besides, the “MIC PA” value against Pseudomonas aeruginosa is greater than 200 µg/mL. In addition, the “MIC EC” value against Eschericia coli is greater than 200 µg/mL. Further, the “MIC EF” value in the data set with Enterococcus faecium is greater than 200 µg/mL.

Take `Cl.Cl.Cl.Cl.Cl.Cl.NCCCCSCC1OC2OC3C(CSCCCCN)OC(OC4C(CSCCCCN)OC(OC5C(CSCCCCN)OC(OC6C(CSCCCCN)OC(OC7C(CSCCCCN)OC(OC1C(O)C2O)C(O)C7O)C(O)C6O)C(O)C5O)C(O)C4O)C(O)C3O` (stereo not shown): the “Mammalian Cytotoxicity IC50” value in the data set on Lungs cancer cells A549 amounted to 589 µg/mL. For the same compound, in the data set with Staphylococcus aureus, the “MIC SA” value was greater than 200 µg/mL. In the data set with Salmonella choleraesuis, the “MIC SC” value is greater than 200 µg/mL. Besides, the “MIC PA” value in the data set with Pseudomonas aeruginosa is greater than 200 µg/mL. In addition, the “MIC EC” value against Eschericia coli was greater than 200 µg/mL. Moreover, in the data set on Enterococcus faecium, the “MIC EF” value is greater than 200 µg/mL.

`COc1cccc(OC)c1C(=O)N[C@@H]1C(=O)N2[C@@H]1SC(C)(C)[C@@H]2C(=O)O` [Methicillin]: the “Activity of known antibiotics alone or in combination with compounds of the invention, P. aeruginosa (susceptible clinical isolate)” value in data set [1] is on record as greater than 100.

In the case of `CCn1cc(C(=O)O)c(=O)c2cc(F)c(N3CCNCC3)cc21` [Norfloxacin], in data set [2], the MIC was greater than 100 µg/mL.

As for `CC1(C)S[C@@H]2[C@H](NC(=O)COc3ccccc3)C(=O)N2[C@H]1C(=O)O` [Penicillin V], the “Activity of known antibiotics alone or in combination with compounds of the invention, P. aeruginosa (susceptible clinical isolate)” value in data set [1] is listed as greater than 100.

Consider `CN[C@H](CC(C)C)C(=O)N[C@H]1C(=O)N[C@@H](CC(N)=O)C(=O)N[C@H]2C(=O)N[C@H]3C(=O)N[C@H](C(=O)N[C@H](C(=O)O)c4cc(O)cc(O)c4-c4cc3ccc4O)[C@H](O)c3ccc(c(Cl)c3)Oc3cc2cc(c3O[C@@H]2O[C@H](CO)[C@@H](O)[C@H](O)[C@H]2O[C@H]2C[C@](C)(N)[C@H](O)[C@H](C)O2)Oc2ccc(cc2Cl)[C@H]1O` [Vancomycin], for which the “Activity of known antibiotics alone or in combination with compounds of the invention, P. aeruginosa (susceptible clinical isolate)” value in data set [1] is recorded as greater than 100.
